Results on eleven compounds are retold here after US6960597B2, “Aza-bridged-bicyclic amino acid derivatives as α4 integrin antagonists” (Orth-McNeil Pharmaceutical, Inc., priority 2000, dated 2005).

A word on the IC50: it is the concentration that inhibits the measured activity by half.

Where two headings read alike, the source gives them in different places.

One experiment concerns the target α4β1 (Homo sapiens, UniProt P05556+P13612). To be noted: cited from earlier work.
Experiment [1] has as its system oxazolone-induced contact hypersensitivity. The settings on record: mouse; 6 mg/kg, sc; cited from earlier work.
Experiment [2] deals with heterotopic heart allograft. The settings on record: hyperlipidemic rabbit; cited from earlier work.
A further experiment addresses T1, α4β1 integrin receptor (Homo sapiens, UniProt P05556+P13612).
T1 construct: Ramos Cell Adhesion Assay (α4β1 Mediated Adhesion/VCAM-1); endogenous in cells; host or cells: Ramos cells
Briefly: Ramos Cell Adhesion Assay (α4β1 Mediated Adhesion/VCAM-1). The format is cell-based. The settings on record: Table III, read-out: Inhibition of Binding of Ramos Cells to Immobilized VCAM-1 IC50. The gist of the method: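 Plates coated overnight at 4° C with recombinant hVCAM-1 (4.0 μg/mL, pH 9.0), then blocked with PBS/1% BSA. Ramos cells labelled with 5 μM Calcein AM adhered 1 h at room temperature with compound; after washing, cells were lysed in SDS and fluorescence read at 485/530 nm.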

Another experiment has as its target T2, human α4β7 (Homo sapiens, UniProt P13612+P26010).
T2 construct: expressed in transfected cells
T2 sequence (P13612 34-1032): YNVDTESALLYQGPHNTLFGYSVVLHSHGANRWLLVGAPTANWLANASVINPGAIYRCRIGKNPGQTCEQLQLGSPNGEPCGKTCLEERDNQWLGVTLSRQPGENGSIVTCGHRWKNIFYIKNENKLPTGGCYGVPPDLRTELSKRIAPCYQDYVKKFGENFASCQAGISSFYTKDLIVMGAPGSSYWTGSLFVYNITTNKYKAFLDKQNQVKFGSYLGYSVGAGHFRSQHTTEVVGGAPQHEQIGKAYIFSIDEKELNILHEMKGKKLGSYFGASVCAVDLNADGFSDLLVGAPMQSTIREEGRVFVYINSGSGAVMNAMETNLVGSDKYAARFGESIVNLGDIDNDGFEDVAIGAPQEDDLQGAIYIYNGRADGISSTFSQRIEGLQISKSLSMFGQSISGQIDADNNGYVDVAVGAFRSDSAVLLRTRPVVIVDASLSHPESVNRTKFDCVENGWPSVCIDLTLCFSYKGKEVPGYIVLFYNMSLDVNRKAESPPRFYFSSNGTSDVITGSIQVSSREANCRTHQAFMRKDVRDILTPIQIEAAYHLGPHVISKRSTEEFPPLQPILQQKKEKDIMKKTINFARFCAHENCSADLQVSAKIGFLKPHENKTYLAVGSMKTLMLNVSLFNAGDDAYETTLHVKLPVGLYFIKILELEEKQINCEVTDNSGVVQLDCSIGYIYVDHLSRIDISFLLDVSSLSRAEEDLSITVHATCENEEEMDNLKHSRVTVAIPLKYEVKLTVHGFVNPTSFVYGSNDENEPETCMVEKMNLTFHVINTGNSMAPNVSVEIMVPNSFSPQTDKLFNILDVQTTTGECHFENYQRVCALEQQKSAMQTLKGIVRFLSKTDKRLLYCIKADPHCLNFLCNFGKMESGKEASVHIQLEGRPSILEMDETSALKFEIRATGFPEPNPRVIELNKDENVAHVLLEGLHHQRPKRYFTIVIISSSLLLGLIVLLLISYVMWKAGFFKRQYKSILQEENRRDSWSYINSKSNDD
T2 sequence (P26010 20-798): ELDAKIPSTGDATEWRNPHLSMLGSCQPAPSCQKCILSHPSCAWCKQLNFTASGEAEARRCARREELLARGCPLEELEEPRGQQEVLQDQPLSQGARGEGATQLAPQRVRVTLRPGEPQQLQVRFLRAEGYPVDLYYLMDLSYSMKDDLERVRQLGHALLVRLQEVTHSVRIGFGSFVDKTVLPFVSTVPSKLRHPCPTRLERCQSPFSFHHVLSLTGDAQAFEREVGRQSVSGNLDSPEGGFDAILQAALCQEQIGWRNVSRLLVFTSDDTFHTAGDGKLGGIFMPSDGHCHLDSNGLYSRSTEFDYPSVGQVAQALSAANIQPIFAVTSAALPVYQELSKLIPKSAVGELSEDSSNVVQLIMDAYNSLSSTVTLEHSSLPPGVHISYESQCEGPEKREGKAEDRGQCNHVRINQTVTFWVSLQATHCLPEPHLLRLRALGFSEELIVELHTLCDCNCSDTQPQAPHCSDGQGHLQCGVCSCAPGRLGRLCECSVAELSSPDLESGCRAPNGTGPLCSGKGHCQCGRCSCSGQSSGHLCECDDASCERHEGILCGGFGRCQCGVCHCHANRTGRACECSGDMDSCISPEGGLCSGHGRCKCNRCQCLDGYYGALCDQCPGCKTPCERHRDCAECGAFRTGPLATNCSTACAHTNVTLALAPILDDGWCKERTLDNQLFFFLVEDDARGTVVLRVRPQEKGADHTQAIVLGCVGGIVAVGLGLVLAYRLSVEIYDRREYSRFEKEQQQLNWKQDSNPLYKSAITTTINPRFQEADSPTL
Put plainly: α4β7-K562 Cell Adhesion Assay (α4β7 Mediated Adhesion/VCAM-1). The format is cell-based. To be noted: Table IV, read-out: Inhibition of Binding of K562 Cells to Immobilized VCAM-1 IC50. The method in brief:
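K562 cells stably expressing human α4β7, labelled with 5 μM Calcein AM, adhered for 1 h at room temperature to plates coated with recombinant hVCAM-1 (4.0 μg/mL) in the presence of compound. After washing, cells were lysed in Tris/SDS. Bound cells were read by fluorescence at 485/530 nm.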

T1 sequence (P05556 21-798, one chain of several): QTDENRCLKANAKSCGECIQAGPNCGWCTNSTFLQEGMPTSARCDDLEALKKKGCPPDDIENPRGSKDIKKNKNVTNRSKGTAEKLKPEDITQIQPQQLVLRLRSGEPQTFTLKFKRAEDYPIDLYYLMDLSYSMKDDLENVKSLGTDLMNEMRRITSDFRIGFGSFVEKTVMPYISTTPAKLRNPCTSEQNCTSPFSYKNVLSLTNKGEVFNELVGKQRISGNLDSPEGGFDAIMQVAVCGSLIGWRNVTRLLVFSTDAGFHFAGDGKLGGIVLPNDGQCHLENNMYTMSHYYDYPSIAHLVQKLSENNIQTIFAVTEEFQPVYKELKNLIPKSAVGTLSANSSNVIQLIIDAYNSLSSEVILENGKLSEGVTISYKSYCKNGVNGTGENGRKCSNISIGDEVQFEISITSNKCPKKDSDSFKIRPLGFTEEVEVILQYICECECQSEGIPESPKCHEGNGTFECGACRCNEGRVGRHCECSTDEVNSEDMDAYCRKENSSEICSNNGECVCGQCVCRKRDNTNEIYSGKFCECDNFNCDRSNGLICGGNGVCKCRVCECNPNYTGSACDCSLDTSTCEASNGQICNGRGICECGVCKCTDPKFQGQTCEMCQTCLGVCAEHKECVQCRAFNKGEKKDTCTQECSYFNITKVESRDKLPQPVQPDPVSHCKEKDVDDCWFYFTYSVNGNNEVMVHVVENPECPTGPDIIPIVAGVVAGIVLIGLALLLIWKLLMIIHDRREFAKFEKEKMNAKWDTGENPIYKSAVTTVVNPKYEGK
Chain of α4β1 (P05556 21-798, one chain of several): as above

Turning to Phenylacetyl-Leu-Asp-Phe-D-Pro-NH2, the IC50 on α4β1 is 2 µM. In addition, in experiment [1], the “efficacy in oxazolone-induced contact hypersensitivity” value was “efficacy similar to the α4 antibody PS/2”. Besides, in experiment [2], the “efficacy in heterotopic heart allograft model” value was “effective”.
In the case of `CN(C(=O)[C@H]1C2CCC(CC2)N1S(=O)(=O)c1ccccc1)[C@@H](Cc1ccc(NC(=O)c2c(Cl)cccc2Cl)cc1)C(=O)O` [Cpd 39, 4-[(2,6-dichlorobenzoyl)amino]-N-methyl-N-[[(3R)-2-(phenylsulfonyl)-2-azabicyclo[2.2.2]oct-3-yl]carbonyl]-L-phenylalanine], the IC50 on α4β1 integrin receptor (μM) was greater than 5 µM; on human α4β7 (μM), greater than 10 µM.
On to `O=C(N[C@@H](Cc1ccc(NS(=O)(=O)c2c(Cl)cccc2Cl)cc1)C(=O)O)C1C2CCC(CC2)N1S(=O)(=O)c1ccccc1` (stereo partly drawn) [Cpd 51, 4-[[(2,6-dichlorophenyl)sulfonyl]amino]-N-[[2-(phenylsulfonyl)-2-azabicyclo[2.2.2]oct-3-yl]carbonyl]-L-phenylalanine], for which the IC50 on α4β1 integrin receptor was 0.784 µM; at human α4β7 (μM) it was greater than 5 µM.
As to `O=C(O)C(Cc1ccc(OCc2c(Cl)cccc2Cl)c(F)c1)NC(=O)C1C2CCC(CC2)N1S(=O)(=O)c1ccccc1` (centres unmarked) [Cpd 62], the 50% inhibitory concentration (IC50) is greater than 5 µM on α4β1 integrin receptor (μM) and greater than 10 µM on human α4β7 (μM).
`Cc1ccc(S(=O)(=O)N2C3CCC(CC3)C2C(=O)N[C@@H](Cc2ccc(NC(=O)Cc3c(Cl)cccc3Cl)cc2)C(=O)O)cc1` (stereo partly drawn) [Cpd 27, 4-[[(2,6-dichlorophenyl)acetyl]amino]-N-[[2-[(4-methylphenyl)sulfonyl]-2-azabicyclo[2.2.2]oct-3-yl]carbonyl]-L-phenylalanine]: the IC50 is 1.09 µM at α4β1 integrin receptor and greater than 10 µM on human α4β7 (μM).
In the case of `COc1cccc(OC)c1C(=O)Nc1cccc(C[C@H](NC(=O)C2C3CCC(CC3)N2S(=O)(=O)c2ccc(C)cc2)C(=O)O)c1` (some centres unmarked) [Cpd 36, 3-[(2,6-dimethoxybenzoyl)amino]-N-[[2-[(4-methylphenyl)sulfonyl]-2-azabicyclo[2.2.2]oct-3-yl]carbonyl]phenylalanine], the IC50 at α4β1 integrin receptor (μM) is greater than 5 µM; at human α4β7 (μM), greater than 10 µM.
With `O=C(N[C@@H](Cc1ccc(OC(=O)N2CCOCC2)cc1)C(=O)O)C1C2CCC(CC2)N1S(=O)(=O)c1ccccc1` (stereo partly drawn) [Cpd 56, O-(4-morpholinylcarbonyl)-N-[[2-(phenylsulfonyl)-2-azabicyclo[2.2.2]oct-3-yl]carbonyl]-L-tyrosine], the IC50 at α4β1 integrin receptor is 0.139 µM; on human α4β7 it was 0.047 µM.
For `COc1ccc(OC)c(C(=O)c2ccc(C(=O)Nc3ccc(C[C@H](NC(=O)C4C5CCC(CC5)N4S(=O)(=O)c4ccc(C)cc4)C(=O)O)cc3)cc2)c1` (stereo partly drawn) [Cpd 26, 4-[[4-(2,5-dimethoxybenzoyl)benzoyl]amino]-N-[[2-[(4-methylphenyl)sulfonyl]-2-azabicyclo[2.2.2]oct-3-yl]carbonyl]-L-phenylalanine], the IC50 on α4β1 integrin receptor was 0.669 µM; at human α4β7 (μM), greater than 10 µM.
For `O=C(O)[C@H](Cc1ccc(OCc2c(Cl)cccc2Cl)c(F)c1)NC(=O)[C@@H]1C2CCC(CC2)N1S(=O)(=O)c1ccccc1` [Cpd 62a, O-[(2,6-dichlorophenyl)methyl]-3-fluoro-N-[[(3S)-2-(phenylsulfonyl)-2-azabicyclo[2.2.2]oct-3-yl]carbonyl]-L-tyrosine], the IC50 was greater than 5 µM on α4β1 integrin receptor (μM) and greater than 10 µM on human α4β7 (μM).
As to `Cc1ccc(S(=O)(=O)N2C3CCC(CC3)C2C(=O)N[C@@H](Cc2ccc(NC(=O)c3ccccc3C)cc2)C(=O)O)cc1` (stereo partly drawn) [Cpd 9, 4-[(2-methylbenzoyl)amino]-N-[[2-[(4-methylphenyl)sulfonyl]-2-azabicyclo[2.2.2]oct-3-yl]carbonyl]-(α^1S)-phenylalanine], the figures for the IC50 at α4β1 integrin receptor and at human α4β7 (μM) were 0.267 µM and greater than 5 µM, respectively.
With `O=C(O)c1ccccc1C(=O)Nc1ccc(C[C@H](NC(=O)[C@@H]2C3CCC(CC3)N2S(=O)(=O)c2ccccc2)C(=O)O)cc1` [Cpd 48, 4-[(2-carboxybenzoyl)amino]-N-[[(3S)-2-(phenylsulfonyl)-2-azabicyclo[2.2.2]oct-3-yl]carbonyl]-L-phenylalanine], the IC50 on α4β1 integrin receptor (μM) is greater than 5 µM; on human α4β7 (μM), greater than 10 µM.
